In ChEMBL document CHEMBL1159016, “Patellamide E: a new cyclic peptide from the ascidian Lissoclinum patella” (J Nat Prod, 1992):
In brackets after ≈: the same amount, converted by molar mass.

System: HCT-116
Assay: Cytotoxicity against human HCT116 cells
Format: functional, cell-based

CC[C@H](C)[C@@H]1NC(=O)c2csc(n2)[C@@H](C(C)C)NC(=O)[C@H]2N=C(O[C@@H]2C)[C@H](C(C)C)NC(=O)c2csc(n2)[C@@H](Cc2ccccc2)NC(=O)[C@H]2N=C1O[C@@H]2C [PATELLAMIDE E] gave an IC50 of 125 µg/mL (≈ 158 µM).
